According to patent US7906486B2, “Method of treating or preventing tissue deterioration, injury or damage due to disease of mucosa” (SciClone Pharmaceuticals, Inc., priority 2007, dated 2011):
“And” between values parts separate entries of the source, which are not always exact repeats. Equal entries are not always repeated.

Tested on: oral mucositis induced by cis-platin 5 mg/kg and radiation 35 Gy (left cheek pouch)
Test: Oral mucositis induced by a combination of cisplatin and acute radiation in hamsters, mucositis scoring (Example 4, SCI-04)
Type: in vivo, Syrian Golden Hamsters
Design: key to Mucositis score, day 6 / Mucositis score, day 8: 0: Pouch completely healthy. No erythema or vasodilation.; 1: Light to severe erythema and vasodilation. No erosion of mucosa.; 2: Severe erythema and vasodilation. Erosion of superficial aspects of mucosa leaving denuded areas. Decreased stippling of mucosa.; 3: Formation of off-white ulcers in one or more places. Ulcers may have a yellow/gray due to pseudomembrane. Cumulative size of ulcers should equal about ¼ of the pouch. Severe erythema and vasodilation.; 4: Cumulative seize of ulcers should equal about ½ of the pouch. Loss of pliability. Severe erythema and vasodilation.; 5: Virtually all of pouch is ulcerated. Loss of pliability (pouch can only partially be extracted from mouth); key to peak mean mucositis score: standard six-point oral mucositis scale; ulceration = score ≥3
Details: for % Days >=3 / Days <3 / Days >=3: qd, sc, Days −1 to 20; for Days >=3: animal days with mucositis score of three or more
Protocol: Forty Golden Syrian hamsters were prospectively randomized into four equally sized groups. Mucositis was induced on the left cheek pouch mucosa of golden Syrian hamsters by a single dose of cis-platin at 5 mg/kg given on day −1, and a single dose of radiation administered on day 0 at a dose of 35Gy. Beginning on day −1 and continuing once daily until day 20, SCV-07 was given by sub-cutaneous injection at doses of 10 μg/kg, 100 μg/kg or 1 mg/kg in a volume of 100 μL. Animals' activity and weight were evaluated daily. Beginning on day 6 and continuing on alternate days for the duration of the study, oral mucositis was evaluated using a standard scoring six point scale. The number of days of ulcerative mucositis was evaluated using a Chi-squared test of scores of ≧3 throughout the study, and the individual daily group scores were assessed with a Rank Sum Test.
The chemo-radiation model of oral mucositis in hamsters, developed by the Principal Investigator, has proven to be an accurate, efficient and cost-effective technique to provide a preliminary evaluation of anti-mucositis compounds. In this model, hamsters received a single dose of cis-platin at 5 mg/kg on day −1, followed by a single dose of radiation of 35 Gy to the left cheek pouch on day 0, rather than the single dose of 40 Gy on day 0 that is used in acute radiation studies. The course of mucositis in this model is very similar to the acute radiation model and results in peak mucositis scores approximately 16-18 days following radiation.
Hamsters received a single dose of cis-platin at 5 mg/kg on day −1 by intra-peritoneal injection, followed by a single dose of radiation of 35 Gy to the left cheek pouch on day 0. This was accomplished by anesthetizing the animals and everting the left buccal pouch, while protecting the rest of the animal's bodies with a lead shield. Test materials were given by sub-cutaneous injection once daily as detailed in Table 13. Mucositis was evaluated clinically starting on day 6, and continuing on alternate days until day 28. Test articles were given as from day −1 to day 20.
The grade of mucositis was scored, beginning day 6, and for every second day thereafter, through and including day 28. The effect on mucositis of each drug treatment compared to placebo was assessed according to the following parameters:
On each evaluation day, the number of animals with a blinded mucositis score of ≧3 in each drug treatment group was compared to the control group. Differences were compared on a cumulative basis and statistical significance was determined by chi-square analysis. Efficacy, in this analysis, is defined by a significant reduction in the number of days that a group of animals had ulcerations (scores 3) when compared to the control group.
For each evaluation day the scores of the control group were compared to those of the treated groups using non-parametric rank sum analysis. Treatment success was considered as a statistically significant lowering of scores in the treated group on 2 or more days from day 6 to day 28.
Forty (40) male Syrian Golden Hamsters were given an intraperitoneal injection of 5 mg/kg Cisplatin on day −1. On day 0 all animals were given an acute radiation dose of 35 Gy directed to their left buccal cheek pouch. This was accomplished by anesthetizing the animals and everting the left buccal pouch, while protecting the rest of the animals with a lead shield. Test materials were given by subcutaneous injection once daily as detailed in Table 13. Mucositis was evaluated clinically starting on Day 6, and continued on alternate days until day 28.
In this study, mucositis was induced with a combination of Cis-platin and radiation. Cis-platin was given as a single injection (IP) of 5 mg/kg on day −1. Radiation was given as a single focal dose of 35 Gy on day 0. Radiation was generated with a Philips 160 kVp (kilovolt potential) (18.75-ma) X-ray source at a focal distance of 30 cm, with a 3.0 mm hardened Al filtration system. […]

[1] = printed 100 ug/kg on days -1 to 20 (second such statement, third treated group)

SMILES: N[C@H](CCC(=O)N[C@@H](Cc1c[nH]c2ccccc12)C(=O)O)C(=O)O [SCV-07, γ-D-glutamyl-L-tryptophan]
- P, daily mucositis scores (Mann-Whitney rank sum) vs saline controls (10 ug/kg days -1 to 20, day 22): 0.010
- P, daily mucositis scores (Mann-Whitney rank sum) vs saline controls (10 ug/kg days -1 to 20, day 24): 0.022
- P, daily mucositis scores (Mann-Whitney rank sum) vs saline controls (10 ug/kg days -1 to 20, day 26): 0.015
- P, daily mucositis scores (Mann-Whitney rank sum) vs saline controls (10 ug/kg days -1 to 20, day 28): < 0.001
- % of animal days with a mucositis score of 3 or higher (10 ug/kg from day -1 to day 20): 34.2%
- P, chi-squared test vs controls, days with score of 3 or higher (10 ug/kg from day -1 to day 20): < 0.001
- day of peak mean mucositis score (10 ug/kg from day -1 to day 20): 16
- peak mean mucositis score (10 ug/kg from day -1 to day 20): 2.9
- % Days >=3 (10 ug/kg): 34.2%
- Days <3 (10 ug/kg): 158
- Days >=3 (10 ug/kg): 82
- P, daily mucositis scores (Mann-Whitney rank sum) vs saline controls (100 ug/kg days -1 to 20, day 6): 0.015
- P, daily mucositis scores (Mann-Whitney rank sum) vs saline controls (100 ug/kg days -1 to 20, day 22): 0.003
- P, daily mucositis scores (Mann-Whitney rank sum) vs saline controls (100 ug/kg days -1 to 20, day 24): 0.005
- P, daily mucositis scores (Mann-Whitney rank sum) vs saline controls (100 ug/kg days -1 to 20, day 26): < 0.001
- P, daily mucositis scores (Mann-Whitney rank sum) vs saline controls (100 ug/kg days -1 to 20, day 28): < 0.001
- peak mean mucositis score (100 ug/kg from day -1 to day 20): 2.8
- % of animal days with a mucositis score of 3 or higher (100 ug/kg on days -1 to 20): 29.2%
- P, chi-squared test vs controls, days with score of 3 or higher (100 ug/kg on days -1 to 20): < 0.001
- % Days >=3 (100 ug/kg): 29.2%
- Days <3 (100 ug/kg): 170
- Days >=3 (100 ug/kg): 70
- P, daily mucositis scores (Mann-Whitney rank sum) vs saline controls (1 mg/kg days -1 to 20, day 6): 0.015
- P, daily mucositis scores (Mann-Whitney rank sum) vs saline controls (1 mg/kg days -1 to 20, day 20): 0.029
- P, daily mucositis scores (Mann-Whitney rank sum) vs saline controls (1 mg/kg days -1 to 20, day 22): 0.012
- P, daily mucositis scores (Mann-Whitney rank sum) vs saline controls (1 mg/kg days -1 to 20, day 24): 0.001
- P, daily mucositis scores (Mann-Whitney rank sum) vs saline controls (1 mg/kg days -1 to 20, day 26): 0.003
- P, daily mucositis scores (Mann-Whitney rank sum) vs saline controls (1 mg/kg days -1 to 20, day 28): < 0.001
- day of peak mean mucositis score (1 mg/kg from day -1 to day 20): 16
- peak mean mucositis score (1 mg/kg from day -1 to day 20): 3.2
- % Days >=3 (1 mg/kg): 30.8%
- Days <3 (1 mg/kg): 166
- Days >=3 (1 mg/kg): 74
- Mucositis score, day 6 (Group 2 (SCV-07 10 μg/kg, day -1 to day 20), individual animal scores, two scores per animal, day 6): 0 (14×) and 1 (6×)
- Mucositis score, day 8 (Group 2 (SCV-07 10 μg/kg, day -1 to day 20), individual animal scores, two scores per animal, day 8): 0 (18×) and 1 (2×)
- severe mucositis, % of animals days evaluated (SCV-07 treated animals (all test groups), 50% in vehicle controls): approximately 30%
- % of animal days with a mucositis score of 3 or higher [1]: 30.8%
- P, chi-squared test vs controls, days with score of 3 or higher [1]: < 0.001
